Measurements: publication PMC5830651 (Molecular Oncology, 2018)

Experiments:
Type in all cases: biochemical
FLT3 = molecular target: T1, FLT3 (Homo sapiens, UniProt P36888); experiment: in vitro kinase assay
T1 construct: recombinant
T1 sequence (P36888 27-993): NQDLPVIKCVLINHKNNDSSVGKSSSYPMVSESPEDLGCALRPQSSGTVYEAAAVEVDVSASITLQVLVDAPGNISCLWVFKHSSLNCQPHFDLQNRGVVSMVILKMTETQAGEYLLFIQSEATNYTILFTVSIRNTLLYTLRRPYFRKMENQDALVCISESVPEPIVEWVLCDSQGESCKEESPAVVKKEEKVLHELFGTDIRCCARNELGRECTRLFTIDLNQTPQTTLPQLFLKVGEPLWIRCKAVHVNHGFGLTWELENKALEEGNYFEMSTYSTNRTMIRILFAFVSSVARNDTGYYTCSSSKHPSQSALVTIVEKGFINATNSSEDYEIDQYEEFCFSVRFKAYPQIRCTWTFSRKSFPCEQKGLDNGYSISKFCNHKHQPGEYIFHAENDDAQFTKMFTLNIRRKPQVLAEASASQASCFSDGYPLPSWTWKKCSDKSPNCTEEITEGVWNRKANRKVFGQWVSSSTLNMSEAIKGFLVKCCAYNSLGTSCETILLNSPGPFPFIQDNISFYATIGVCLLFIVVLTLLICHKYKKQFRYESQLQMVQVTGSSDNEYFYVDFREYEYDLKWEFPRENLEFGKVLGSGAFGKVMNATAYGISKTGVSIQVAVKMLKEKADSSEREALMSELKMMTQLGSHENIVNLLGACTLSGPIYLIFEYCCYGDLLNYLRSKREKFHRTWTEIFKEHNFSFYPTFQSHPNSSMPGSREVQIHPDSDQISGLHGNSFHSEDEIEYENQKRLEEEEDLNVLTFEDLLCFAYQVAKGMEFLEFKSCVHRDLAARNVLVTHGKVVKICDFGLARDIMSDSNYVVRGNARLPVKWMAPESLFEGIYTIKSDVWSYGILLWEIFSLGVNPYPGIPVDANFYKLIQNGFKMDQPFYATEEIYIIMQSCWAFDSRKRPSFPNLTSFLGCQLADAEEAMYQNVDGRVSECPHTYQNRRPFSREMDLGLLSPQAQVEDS
Source text: in vitro kinase assay on FLT3

SRC = molecular target: T2, SRC (Homo sapiens, UniProt P12931); experiment: in vitro kinase assay
T2 construct: recombinant
Source text: in vitro kinase assay on SRC

ABL = molecular target: T3, ABL (Homo sapiens, UniProt P00519); experiment: in vitro kinase assay
T3 construct: gene ABL1; recombinant
Source text: in vitro kinase assay on ABL

CDK1/B (CDK1/cyclin B) = molecular target: T4, CDK1/B (CDK1/cyclin B) (Homo sapiens, UniProt P06493); experiment: in vitro kinase assay; details: read-out: CCT068127 Mean IC50 (μmol.L^-1) ± SE; mean of three independent repeats
T4 construct: recombinant human kinase complex; with G2/mitotic-specific cyclin-B1
Source text: in vitro kinase assay on CDK1/B (CDK1/cyclin B)

AURKA = molecular target: T5, AURKA (Homo sapiens, UniProt O14965); experiment: in vitro kinase assay
T5 construct: recombinant
T5 sequence (O14965 1-403): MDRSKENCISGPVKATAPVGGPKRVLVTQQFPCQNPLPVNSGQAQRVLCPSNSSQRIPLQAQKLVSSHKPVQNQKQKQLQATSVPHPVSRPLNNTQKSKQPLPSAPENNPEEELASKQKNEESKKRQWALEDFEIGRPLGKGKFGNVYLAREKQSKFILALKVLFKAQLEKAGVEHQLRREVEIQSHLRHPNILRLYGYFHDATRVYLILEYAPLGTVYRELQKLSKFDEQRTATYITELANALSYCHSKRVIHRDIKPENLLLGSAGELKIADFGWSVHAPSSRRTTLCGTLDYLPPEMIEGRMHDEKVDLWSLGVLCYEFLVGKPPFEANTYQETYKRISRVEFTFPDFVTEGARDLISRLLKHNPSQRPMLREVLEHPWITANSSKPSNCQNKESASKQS
Source text: in vitro kinase assay on AURKA

CDK5/p35 = molecular target: T6, CDK5/p35 (Homo sapiens, UniProt Q00535); experiment: Invitrogen Select Screen kinase assay; details: read-out: CCT068127 Mean IC50 (μmol.L^-1) ± SE; mean of two determinations
T6 construct: recombinant complex, Invitrogen Select Screen service
Source text: Invitrogen Select Screen kinase assay on CDK5/p35

SAP2KA = molecular target: T7, SAP2KA (Homo sapiens, UniProt Q16539); experiment: in vitro kinase assay
T7 construct: gene MAPK14; recombinant; printed SAP2KA, read as SAPK2A
Source text: in vitro kinase assay on SAP2KA

ERK2 = molecular target: T8, ERK2 (Homo sapiens, UniProt P28482); experiment: in vitro kinase assay
T8 construct: gene MAPK1; recombinant
Source text: in vitro kinase assay on ERK2

CDK6/D3 = molecular target: T9, CDK6/D3 (Homo sapiens, UniProt Q00534); experiment: in vitro kinase assay; details: read-out: CCT068127 Mean IC50 (μmol.L^-1) ± SE; mean of three independent repeats
T9 construct: recombinant human kinase complex; with G1/S-specific cyclin-D3
Source text: in vitro kinase assay on CDK6/D3

LCK = molecular target: T10, LCK (Homo sapiens, UniProt P06239); experiment: in vitro kinase assay
T10 construct: recombinant
Source text: in vitro kinase assay on LCK

PDGFB = molecular target: T11, PDGFB (Homo sapiens, UniProt P09619); experiment: in vitro kinase assay
T11 construct: gene PDGFRB; recombinant kinase; printed PDGFB, must be the receptor kinase PDGFR beta
Source text: in vitro kinase assay on PDGFB

PLK1 = molecular target: T12, PLK1 (Homo sapiens, UniProt P53350); experiment: in vitro kinase assay
T12 construct: recombinant
Source text: in vitro kinase assay on PLK1

T11 sequence (P09619 33-1106): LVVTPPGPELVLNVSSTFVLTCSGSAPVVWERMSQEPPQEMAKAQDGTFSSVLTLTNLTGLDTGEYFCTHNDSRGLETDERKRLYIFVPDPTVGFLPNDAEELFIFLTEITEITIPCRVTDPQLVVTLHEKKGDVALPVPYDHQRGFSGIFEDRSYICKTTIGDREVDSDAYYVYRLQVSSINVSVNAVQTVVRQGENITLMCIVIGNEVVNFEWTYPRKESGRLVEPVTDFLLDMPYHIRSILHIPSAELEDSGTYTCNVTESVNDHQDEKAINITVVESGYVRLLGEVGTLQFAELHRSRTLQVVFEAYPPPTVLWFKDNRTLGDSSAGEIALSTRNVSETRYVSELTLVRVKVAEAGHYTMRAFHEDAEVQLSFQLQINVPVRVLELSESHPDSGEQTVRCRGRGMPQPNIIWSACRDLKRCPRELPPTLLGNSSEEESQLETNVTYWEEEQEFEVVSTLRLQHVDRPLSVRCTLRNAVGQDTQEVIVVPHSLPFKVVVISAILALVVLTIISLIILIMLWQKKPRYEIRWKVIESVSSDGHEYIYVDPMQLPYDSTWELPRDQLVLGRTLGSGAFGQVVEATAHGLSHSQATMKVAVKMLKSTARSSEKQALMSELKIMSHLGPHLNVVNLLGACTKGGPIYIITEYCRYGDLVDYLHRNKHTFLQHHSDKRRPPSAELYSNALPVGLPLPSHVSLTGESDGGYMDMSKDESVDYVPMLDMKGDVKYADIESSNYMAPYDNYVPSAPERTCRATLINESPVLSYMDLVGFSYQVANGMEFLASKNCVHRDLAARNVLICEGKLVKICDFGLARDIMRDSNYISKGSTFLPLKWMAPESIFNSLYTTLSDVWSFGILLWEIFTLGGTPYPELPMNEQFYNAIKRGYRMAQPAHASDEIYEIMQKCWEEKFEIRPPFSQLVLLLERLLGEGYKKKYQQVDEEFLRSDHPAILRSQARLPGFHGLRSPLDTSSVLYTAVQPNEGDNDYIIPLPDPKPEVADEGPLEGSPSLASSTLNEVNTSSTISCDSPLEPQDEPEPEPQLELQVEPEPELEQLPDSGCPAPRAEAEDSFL
T7 sequence (Q16539 2-360): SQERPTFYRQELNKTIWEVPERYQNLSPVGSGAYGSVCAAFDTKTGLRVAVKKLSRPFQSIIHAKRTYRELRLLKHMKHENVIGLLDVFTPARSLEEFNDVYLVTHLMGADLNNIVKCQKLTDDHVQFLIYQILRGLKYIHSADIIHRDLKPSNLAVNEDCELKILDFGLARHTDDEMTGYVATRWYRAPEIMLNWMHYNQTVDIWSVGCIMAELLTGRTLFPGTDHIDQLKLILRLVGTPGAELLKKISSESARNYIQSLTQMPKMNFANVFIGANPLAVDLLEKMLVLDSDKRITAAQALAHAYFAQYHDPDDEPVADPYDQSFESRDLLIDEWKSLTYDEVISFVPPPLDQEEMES
T2 sequence (P12931 2-536): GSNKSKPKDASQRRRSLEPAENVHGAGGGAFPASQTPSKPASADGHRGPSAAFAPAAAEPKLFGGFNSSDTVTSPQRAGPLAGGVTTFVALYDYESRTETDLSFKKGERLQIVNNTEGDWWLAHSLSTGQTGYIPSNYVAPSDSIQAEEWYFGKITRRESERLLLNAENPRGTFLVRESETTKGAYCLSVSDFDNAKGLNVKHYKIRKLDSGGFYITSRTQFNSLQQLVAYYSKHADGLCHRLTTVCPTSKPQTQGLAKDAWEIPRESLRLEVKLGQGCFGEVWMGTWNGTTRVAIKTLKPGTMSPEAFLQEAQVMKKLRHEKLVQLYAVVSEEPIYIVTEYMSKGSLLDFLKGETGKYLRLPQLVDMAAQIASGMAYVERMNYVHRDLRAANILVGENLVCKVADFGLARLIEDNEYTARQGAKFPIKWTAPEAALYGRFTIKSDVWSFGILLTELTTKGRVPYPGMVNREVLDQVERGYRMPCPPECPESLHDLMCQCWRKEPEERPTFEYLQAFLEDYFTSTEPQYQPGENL
T4 sequence (P06493 whole entry): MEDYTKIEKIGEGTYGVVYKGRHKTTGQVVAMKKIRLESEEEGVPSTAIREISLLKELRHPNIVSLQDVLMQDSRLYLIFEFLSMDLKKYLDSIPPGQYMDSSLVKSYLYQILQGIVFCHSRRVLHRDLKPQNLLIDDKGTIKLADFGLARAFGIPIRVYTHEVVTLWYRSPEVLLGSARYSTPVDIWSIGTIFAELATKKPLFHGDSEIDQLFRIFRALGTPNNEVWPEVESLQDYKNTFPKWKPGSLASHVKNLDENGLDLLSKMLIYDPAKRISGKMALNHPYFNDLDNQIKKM
T4 sequence (P14635 whole entry partner): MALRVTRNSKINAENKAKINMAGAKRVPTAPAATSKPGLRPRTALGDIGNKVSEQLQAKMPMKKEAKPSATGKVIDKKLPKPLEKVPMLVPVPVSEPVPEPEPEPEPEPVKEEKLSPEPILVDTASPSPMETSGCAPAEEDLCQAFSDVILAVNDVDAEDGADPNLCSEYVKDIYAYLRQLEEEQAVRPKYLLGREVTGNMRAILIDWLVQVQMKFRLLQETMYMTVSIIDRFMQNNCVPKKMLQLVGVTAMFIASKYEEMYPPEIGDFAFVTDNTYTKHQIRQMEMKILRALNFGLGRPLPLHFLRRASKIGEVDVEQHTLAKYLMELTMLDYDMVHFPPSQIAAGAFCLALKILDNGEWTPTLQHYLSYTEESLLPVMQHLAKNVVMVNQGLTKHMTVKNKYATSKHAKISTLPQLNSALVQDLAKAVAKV
T12 sequence (P53350 2-603): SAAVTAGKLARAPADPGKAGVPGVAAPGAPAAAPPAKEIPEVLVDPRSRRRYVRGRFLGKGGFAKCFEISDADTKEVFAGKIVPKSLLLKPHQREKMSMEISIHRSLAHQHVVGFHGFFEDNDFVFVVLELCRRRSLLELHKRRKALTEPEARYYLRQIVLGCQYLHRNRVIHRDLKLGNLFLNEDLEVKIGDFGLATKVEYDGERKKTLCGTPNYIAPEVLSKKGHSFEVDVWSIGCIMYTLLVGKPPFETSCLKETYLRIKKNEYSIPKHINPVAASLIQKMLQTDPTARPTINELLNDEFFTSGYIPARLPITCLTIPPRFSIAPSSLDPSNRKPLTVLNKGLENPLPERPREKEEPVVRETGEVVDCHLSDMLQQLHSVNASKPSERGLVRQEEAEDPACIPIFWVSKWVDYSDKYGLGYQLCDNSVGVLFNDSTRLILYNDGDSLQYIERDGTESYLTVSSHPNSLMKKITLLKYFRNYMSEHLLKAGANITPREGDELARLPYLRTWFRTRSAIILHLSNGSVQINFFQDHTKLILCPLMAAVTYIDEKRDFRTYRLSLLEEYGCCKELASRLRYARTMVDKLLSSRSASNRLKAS
T9 sequence (Q00534 whole entry): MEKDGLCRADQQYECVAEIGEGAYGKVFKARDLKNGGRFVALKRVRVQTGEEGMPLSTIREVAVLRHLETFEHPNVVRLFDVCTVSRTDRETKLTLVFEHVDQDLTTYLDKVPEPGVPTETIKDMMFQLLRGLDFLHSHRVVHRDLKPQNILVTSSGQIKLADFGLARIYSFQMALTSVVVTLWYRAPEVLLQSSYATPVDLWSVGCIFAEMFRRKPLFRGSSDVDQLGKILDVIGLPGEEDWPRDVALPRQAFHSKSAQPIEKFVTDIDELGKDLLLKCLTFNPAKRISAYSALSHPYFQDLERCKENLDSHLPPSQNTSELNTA
T9 sequence (P30281 whole entry partner): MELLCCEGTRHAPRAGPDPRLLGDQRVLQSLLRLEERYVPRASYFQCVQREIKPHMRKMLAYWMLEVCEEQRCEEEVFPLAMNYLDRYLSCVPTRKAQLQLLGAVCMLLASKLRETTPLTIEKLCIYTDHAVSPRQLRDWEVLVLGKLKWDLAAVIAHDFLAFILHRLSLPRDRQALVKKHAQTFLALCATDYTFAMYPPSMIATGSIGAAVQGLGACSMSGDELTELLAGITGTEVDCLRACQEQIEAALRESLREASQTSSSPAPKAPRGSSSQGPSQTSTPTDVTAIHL
T8 sequence (P28482 2-360): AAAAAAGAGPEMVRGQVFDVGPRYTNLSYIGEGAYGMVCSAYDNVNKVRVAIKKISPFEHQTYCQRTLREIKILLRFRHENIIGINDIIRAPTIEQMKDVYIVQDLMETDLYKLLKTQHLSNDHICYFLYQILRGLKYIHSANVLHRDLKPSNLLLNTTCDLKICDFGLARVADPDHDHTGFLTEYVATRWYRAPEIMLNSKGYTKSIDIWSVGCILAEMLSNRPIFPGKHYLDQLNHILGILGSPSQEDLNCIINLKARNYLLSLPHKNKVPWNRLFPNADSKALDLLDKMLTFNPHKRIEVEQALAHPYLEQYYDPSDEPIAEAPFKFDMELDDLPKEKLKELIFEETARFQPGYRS
T10 sequence (P06239 2-509): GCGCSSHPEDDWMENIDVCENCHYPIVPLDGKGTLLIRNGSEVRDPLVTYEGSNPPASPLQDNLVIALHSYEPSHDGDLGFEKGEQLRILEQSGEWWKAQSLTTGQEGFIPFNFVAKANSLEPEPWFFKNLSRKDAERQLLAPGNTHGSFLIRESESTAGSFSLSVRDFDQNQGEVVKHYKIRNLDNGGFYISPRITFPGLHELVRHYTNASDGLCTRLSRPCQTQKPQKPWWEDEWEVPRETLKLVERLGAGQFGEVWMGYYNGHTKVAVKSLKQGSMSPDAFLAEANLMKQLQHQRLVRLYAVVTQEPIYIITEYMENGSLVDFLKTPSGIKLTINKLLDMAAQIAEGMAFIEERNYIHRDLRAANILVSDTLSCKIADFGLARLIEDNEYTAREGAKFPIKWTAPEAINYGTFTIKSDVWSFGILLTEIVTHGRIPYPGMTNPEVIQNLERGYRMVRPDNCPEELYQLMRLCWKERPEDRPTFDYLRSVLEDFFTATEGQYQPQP

IC50 (FLT3): > 10 µM | IC50 (SRC): > 10 µM | IC50 (ABL): > 10 µM | IC50 (CDK1/B (CDK1/cyclin B)): 1.1 ± 0.29 µmol/L | IC50 (AURKA): > 10 µM | IC50 (CDK5/p35): 0.07 µmol/L | IC50 (SAP2KA): > 10 µM | IC50 (ERK2): > 10 µM | IC50 (CDK6/D3): 6.2 ± 0.6 µmol/L | IC50 (LCK): > 10 µM | IC50 (PDGFB): > 10 µM | IC50 (PLK1): > 10 µM
Compound: CC[C@H](Nc1nc(NCc2cccnc2)c2ncn(C(C)C)c2n1)[C@@H](C)O [CCT068127]
